{"source": "patent US10815232B2", "about": "“Crystalline forms of viral-protein inhibitor drug VX-787, processes for preparation thereof and use thereof” (Crystal Pharmaceutical (Suzhou) Co., Ltd., priority 2017, dated 2020)", "key": {"[1]": {"test": "Storage stability of crystalline forms (XRPD, HPLC)", "type": "physicochemical", "conditions": "for Purity after storage: initial purity 99.24%; for purities after storage: all storage conditions tested for the form", "experimental": "The hydrochloride Form CS1 prepared by the present disclosure was stored under 25° C./60% RH and 40° C./75% RH for 1 month. The crystalline forms were checked by XRPD before and after storing.\n(§1) Three samples of hydrochloride Form CS3 prepared by the present disclosure were stored in open dishes under conditions of 25° C./60% RH, 40° C./75% RH for 1 month, and 60° C./75% relative humidity for 2 weeks. The crystalline forms and the chemical purities were checked by XRPD and HPLC before and after storing.\nas §1, with “CS4” for “CS3”, “RH for two weeks,” for “RH,”, “HPLC respectively” for “HPLC”\n[…] The crystalline forms and chemical purities were checked by HPLC and XRPD before and after storing."}, "[2]": {"test": "Dynamic solubility in FaSSIF and FeSSIF (Example 22)", "type": "physicochemical", "experimental": "The crystallite form CS3 of compound I of the present disclosure and free form Form A in CN105849100A are prepared into saturated solutions in pH-5.0 FeSSIF (Fed state simulated intestinal fluids) and pH=6.5 FaSSIF (Fasted state simulated intestinal fluids). The content of the sample in the saturated solution was determined by high performance liquid chromatography (HPLC) after equlibrated for 1, 4 and 24 hours."}, "[3]": {"test": "Dynamic solubility in water (Example 11)", "type": "physicochemical", "experimental": "12 mg of hydrochloride Form CS3 prepared in the present disclosure and the hydrochloride Form A in CN105849100A were accurately weighed and placed in vials, followed by adding 1.2 mL of water. The samples were rotated at 30 rpm on a rotator and sampled at 1 hour, 4 hours, and 24 hours. After centrifugation with 0.45 urn polytetrafluoroethylene (PTFE) filters, the filtrates were collected for HPLC analysis."}, "[4]": {"test": "Dynamic solubility, saturated solution in pure water (Example 17)", "type": "physicochemical", "conditions": "for Solubility: pure water", "experimental": "Hydrochloride Form CS4 of the present disclosure and hydrochloride Form A in CN105849100A were prepared into saturated solution in pure water. The content of the sample in the saturated solution was determined by high performance liquid chromatography (HPLC) after 1, 4 and 24 hours. The solubility data of hydrochloride Form CS4 of the present disclosure and hydrochloride Form A in CN105849100A are shown in Table 12."}, "[5]": {"test": "Mechanical stability (grinding, XRPD)", "type": "physicochemical", "conditions": "ground in an agate mortar for about 2 minutes", "experimental": "About 10 mg of hydrochloride Form CS1 of the present disclosure was taken and ground in an agate mortar for about 2 minutes."}, "[6]": {"tested_on": "influenza virus infection", "conditions": "Completed Phase IIa studies; cited from earlier work"}, "[7]": {"conditions": "Phase I studies; cited from earlier work"}, "[8]": {"conditions": "25° C./60% RH, Five months, open dish"}, "[9]": {"conditions": "40° C./75% RH, Five months, open dish"}}, "note": "Entries after “also recorded” stand apart in the source; their conditions may differ. Where a name gives a salt, the structure may show the parent alone.", "data": [{"smiles": "O=C(O)[C@H]1C2CCC(CC2)[C@@H]1Nc1nc(-c2c[nH]c3ncc(F)cc23)ncc1F", "note": "[Form CS3 of Compound I]", "values": [{"measurement": "Change of crystalline form", "setting": "[1]; [8]", "value": "Five months Unchanged"}, {"measurement": "Purity after storage", "setting": "[1]; [8]", "value": 99.28, "unit": "%"}, {"measurement": "time for which the form is stable", "setting": "[1]; 25° C./60% RH, listed as Crystalline form CS3 of compound I", "value": "at least 5 months"}, {"measurement": "time for which the form is stable", "setting": "[1]; 25° C./60% RH, listed as crystalline form CS3 of compound I", "value": "at least 5 months"}, {"measurement": "Change of crystalline form", "setting": "[1]; [9]", "value": "Five months Unchanged"}, {"measurement": "Purity after storage", "setting": "[1]; [9]", "value": 99.26, "unit": "%"}, {"measurement": "time for which the form is stable", "setting": "[1]; 40° C./75% RH, listed as Crystalline form CS3 of compound I", "value": "at least 5 month"}, {"measurement": "time for which the form is stable", "setting": "[1]; 40° C./75% RH, listed as crystalline form CS3 of compound I", "value": "at least 5 month"}, {"measurement": "Solubility FaSSIF", "setting": "[2]; FaSSIF pH=6.5, 1 hour", "value": 110, "unit": "µg/mL"}, {"measurement": "Solubility FaSSIF", "setting": "[2]; FaSSIF pH=6.5, 4 hours", "value": 210, "unit": "µg/mL"}, {"measurement": "Solubility FaSSIF", "setting": "[2]; FaSSIF pH=6.5, 24 hours", "value": 200, "unit": "µg/mL"}, {"measurement": "solubility, times higher than Form A in CN105849100A", "setting": "[2]; FaSSIF, 1, 4 and 24 hours", "value": "6-16 times"}, {"measurement": "Solubility FeSSIF", "setting": "[2]; FeSSIF pH 5.0, 1 hour", "value": 210, "unit": "µg/mL"}, {"measurement": "Solubility FeSSIF", "setting": "[2]; FeSSIF pH 5.0, 4 hours", "value": 290, "unit": "µg/mL"}, {"measurement": "Solubility FeSSIF", "setting": "[2]; FeSSIF pH 5.0, 24 hours", "value": 250, "unit": "µg/mL"}, {"measurement": "solubility, times higher than Form A in CN105849100A", "setting": "[2]; FeSSIF, 1, 4 and 24 hours", "value": "4-11 times"}]}, {"smiles": "O=C(O)[C@H]1C2CCC(CC2)[C@@H]1Nc1nc(-c2c[nH]c3ncc(F)cc23)ncc1F", "note": "[Free Form Form A in CN105849100A, reference compound]", "values": [{"measurement": "Solubility FaSSIF", "setting": "[2]; FaSSIF pH=6.5, 1 hour", "value": 7, "unit": "µg/mL"}, {"measurement": "Solubility FaSSIF", "setting": "[2]; FaSSIF pH=6.5, 4 hours", "value": 13, "unit": "µg/mL"}, {"measurement": "Solubility FaSSIF", "setting": "[2]; FaSSIF pH=6.5, 24 hours", "value": 31, "unit": "µg/mL"}, {"measurement": "Solubility FeSSIF", "setting": "[2]; FeSSIF pH 5.0, 1 hour", "value": 18, "unit": "µg/mL"}, {"measurement": "Solubility FeSSIF", "setting": "[2]; FeSSIF pH 5.0, 4 hours", "value": 30, "unit": "µg/mL"}, {"measurement": "Solubility FeSSIF", "setting": "[2]; FeSSIF pH 5.0, 24 hours", "value": 57, "unit": "µg/mL"}]}, {"smiles": "O=C(O)[C@H]1C2CCC(CC2)[C@@H]1Nc1nc(-c2c[nH]c3ncc(F)cc23)ncc1F", "note": "[Hydrochloride Form A in CN105849100A, reference compound]", "values": [{"measurement": "Solubility", "setting": "[3]; 1 hour", "value": 0.3, "unit": "µg/mL"}, {"measurement": "Solubility", "setting": "[3]; 4 hours", "value": 0.9, "unit": "µg/mL"}, {"measurement": "Solubility", "setting": "[3]; 24 hours", "value": 2.5, "unit": "µg/mL"}, {"measurement": "Solubility", "setting": "[4]; 1 hour", "value": 0.3, "unit": "µg/mL"}, {"measurement": "Solubility", "setting": "[4]; 4 hours", "value": 0.9, "unit": "µg/mL"}, {"measurement": "Solubility", "setting": "[4]; 24 hours", "value": 2.5, "unit": "µg/mL"}]}, {"smiles": "O=C(O)[C@H]1C2CCC(CC2)[C@@H]1Nc1nc(-c2c[nH]c3ncc(F)cc23)ncc1F", "note": "[Hydrochloride Form CS1]", "values": [{"measurement": "time for which the form is stable", "setting": "[1]; 25° C./60% RH", "value": "at least 1 months"}, {"measurement": "Change of crystalline form", "setting": "[1]; 25° C./60% RH, One month", "value": "Unchanged"}, {"measurement": "time for which the form is stable", "setting": "[1]; 25° C./60% RH, listed as hydrochloride Form CS1", "value": "at least 1 months"}, {"measurement": "time for which the form is stable", "setting": "[1]; 40° C./75% RH", "value": "at least 1 month"}, {"measurement": "Change of crystalline form", "setting": "[1]; 40° C./75% RH, One month", "value": "Unchanged"}, {"measurement": "time for which the form is stable", "setting": "[1]; 40° C./75% RH, listed as hydrochloride Form CS1", "value": "at least 1 month"}, {"measurement": "purities after storage", "setting": "[1]", "value": "above 98%"}, {"measurement": "crystalline form change after grinding", "setting": "[5]", "value": "no form change is observed; also recorded: No crystalline form change"}]}, {"smiles": "O=C(O)[C@H]1C2CCC(CC2)[C@@H]1Nc1nc(-c2c[nH]c3ncc(F)cc23)ncc1F", "note": "[Hydrochloride Form CS3]", "values": [{"measurement": "Change of crystalline form", "setting": "[1]; 25° C./60% RH, Seven months, open dish", "value": "Unchanged"}, {"measurement": "time for which the form is stable", "setting": "[1]; 25° C./60% RH, listed as hydrochloride Form CS3", "value": "at least 7 months"}, {"measurement": "time for which the form is stable", "setting": "[1]; 40° C./75% RH, listed as hydrochloride Form CS3", "value": "at least 1 month"}, {"measurement": "time for which the form is stable", "setting": "[1]; 60° C./75% RH", "value": "at least 2 weeks"}, {"measurement": "Change of crystalline form", "setting": "[1]; 60° C./75% RH, Two weeks, open dish", "value": "Unchanged"}, {"measurement": "purities after storage", "setting": "[1]", "value": "above 98%"}, {"measurement": "Solubility", "setting": "[3]; 1 hour", "value": 2.5, "unit": "µg/mL"}, {"measurement": "Solubility", "setting": "[3]; 4 hours", "value": 46.0, "unit": "µg/mL"}, {"measurement": "Solubility", "setting": "[3]; 24 hours", "value": 15.0, "unit": "µg/mL"}, {"measurement": "solubility, times higher than hydrochloride Form A in CN105849100A", "setting": "[3]; after 1, 4 and 24 hours", "value": "6-51 times"}]}, {"smiles": "O=C(O)[C@H]1C2CCC(CC2)[C@@H]1Nc1nc(-c2c[nH]c3ncc(F)cc23)ncc1F", "note": "[Hydrochloride Form CS4]", "values": [{"measurement": "Change of crystalline form", "setting": "[1]; 25° C./60% RH, Two weeks, open dish", "value": "Unchanged"}, {"measurement": "time for which the form is stable", "setting": "[1]; 25° C./60% RH, listed as hydrochloride Form CS4", "value": "at least 2 weeks"}, {"measurement": "time for which the form is stable", "setting": "[1]; 40° C./75% RH, listed as hydrochloride Form CS4", "value": "at least 1 month"}, {"measurement": "purities after storage", "setting": "[1]", "value": "above 98%"}, {"measurement": "Solubility", "setting": "[4]; 1 hour", "value": 85, "unit": "µg/mL"}, {"measurement": "Solubility", "setting": "[4]; 4 hours", "value": 75, "unit": "µg/mL"}, {"measurement": "Solubility", "setting": "[4]; 24 hours", "value": 94, "unit": "µg/mL"}, {"measurement": "solubility, times higher than hydrochloride Form A of CN105849100A", "setting": "[4]; water, after 1, 4 and 24 hours", "value": "38-283 times"}]}, {"smiles": "O=C(O)[C@H]1C2CCC(CC2)[C@@H]1Nc1nc(-c2c[nH]c3ncc(F)cc23)ncc1F", "note": "[VX-787, (2S,3S)-3-((5-Huoro-2-(5-fluoro-1.171-pyrrolo[2,3-b]pyridin-3-yl)pyrimidin-4-yl)amino) bicyclo[2.2.2]octane-2-carboxylic acid]", "values": [{"measurement": "virological and clinical evaluation of influenza virus infection", "setting": "[6]", "value": "statistical significance"}, {"measurement": "tolerance", "setting": "[7]", "value": "good tolerance"}]}]}
